One test deals with HIV. The conditions noted are these: CD4+ cells, Fields, et al., Nature, Vol. 333, 19 May 1988, cited from earlier work.
Another test deals with RF strain of HIV-1. The test can be described thus: p24 antigen expression from HIV infected T-lymphocytes (C8166 T cell line). The class given is cell-based. As to conditions: C8166 cells; for p24 Antigen: 3 h pretreatment, culture fluid after 3 days. As to the method: Cells (C8166 T cell line) were pretreated with test compounds at appropriate concentrations for 3 hours prior to virus (RF strain of HIV-1) absorption. Low multiplicity of infection was used and virus absorption period was 1 hour at room temperature. the cells were washed X1 in PBS and resuspended in fresh medium containing the appropriate concentrations of test compound. Cells incubated at 37°C and after 3 days culture fluid was assayed for p24 antigen as a measure of viral replication. Because these compounds were insoluble in water as their free base, they had to be taken up in DMSO and therefore a series of DMSO virus controls were needed for comparison.

For test [1], the system named is Moloney murine leukemia virus (MoLV). The test can be described thus: in vitro XC plaque assay (SC-1 cells infected with MoLV, XC cell overlay, plaques counted). The class given is cell-based. As to conditions: compound added 2 hours before virus; for Mean No. of Foci: control 84 foci. As to the method:
This assay was performed according to the method of Rowe et al. (Virology, 1970,42, 1136-39) as previously described by L. Hsu, et al. (J. Virological Methods, 1980, 1, 167-77) and T. L. Bowlin and M. R. Proffitt (J. Interferon Res., 1983, 3(1), 19-31). Mouse SC-1 cells (fibroblast) (10⁵) were seeded into each well of 6-well cluster plates (Costar #3506) in 4 ml Minimum Essential Medium (MEM) with 10% Fetal Calf Serum (FCS). Following an 18 hour incubation period (37°C), Moloney murine leukemia virus (MoLV) was applied at a predetermined titer to give optimal (i.e. countable) numbers of virus plaques. Compounds were added 2 hours prior to addition of the virus. Three days later the culture medium was removed, the SC-1 cell monolayers were exposed to UV irradiation (1800 ergs), and rat XC cells (10⁶) were seeded into each well in 4 ml MEM. Following an additional 3 day incubation (37°C), these cells were fixed with ethyl alcohol (95%) and stained with 0.3% crystal violet. Plaques were then counted under low magnification.

Where a name gives a salt, the structure may show the parent alone.

By inhibition is commonly meant the percentage by which the read-out fell short of the control. A high value points to strong suppression.

As for `CC1CNCCN1S(=O)(=O)c1cccc2cnccc12` (stereo not shown) [1,5-isoquinolinesulphonyl-2-methylpiperazine dihydrochloride], the “HIV cell surface binding” value with HIV is recorded as “does not interfere with HIV cell surface binding”. The viral infectivity entry with HIV (accumulation of virus particles at the cell surface) is “inhibition of viral infectivity”.
As to `CCCc1[nH]c(=O)oc1-c1ccnc2ccccc12` [Test Compound, 4-propyl-5-(4-quinolinyl)-2(3H)-oxazolone], the “p24 Antigen” value worked out at 745 pg/mL in the test with RF strain of HIV-1 (1 µg/ml, vehicle DMSO 0.01%, DMSO control 1027 pg/ml) and 710 pg/mL in the test with RF strain of HIV-1 (10 µg/ml, vehicle DMSO 0.1%, DMSO control 2408 pg/ml). Also, the inhibition at 1 µg/mL amounted to 28% in the test with RF strain of HIV-1 (Human immunodeficiency virus 1, 72 h, 1 µg/ml, vehicle DMSO 0.01%, 3 days) and 88.1% in test [1] (Murine leukemia virus, SC-1, 1 µg/ml). The compound further returned an inhibition at 10 µg/mL in the test with RF strain of HIV-1 (Human immunodeficiency virus 1, 72 h, 10 µg/ml, vehicle DMSO 0.1%, 3 days) of 71%. The “Mean No. of Foci” value in test [1] (0.10 µg/ml) is on record as 84; in test [1] (1 µg/ml), 10. Testing at 0.1 µg/mL in test [1] (Murine leukemia virus, SC-1, 0.10 µg/ml) gave an inhibition of 0%.

Source of the values: EP0428105A2, “Use of quinolyl- and isoquinolyloxazole-2-ones for the production of a medicament for the prevention of glycoprotein enveloped virus infectivity” (MERRELL DOW PHARMACEUTICALS INC., priority 1989, dated 1991).
